Measured values reported in PubChem BioAssay AID1259407 (Chemical Carcinogenesis Research Information System (CCRIS), 2018).
Calls of active or inactive are those of the source. The rule behind the calls is not given here.

Tested on: CCRIS mutagenicity, Ames/micronucleus/aberration tests
Experiment: CCRIS mutagenicity studies
[1] = Test System: AMES SALMONELLA TYPHIMURIUM, Strain/Indicator: TA98, Metabolic Activation: NONE, Method: STANDARD PLATE
[2] = Test System: AMES SALMONELLA TYPHIMURIUM, Strain/Indicator: TA98, Metabolic Activation: RAT, LIVER, S-9, AROCLOR 1254, Method: STANDARD PLATE
[3] = Test System: AMES SALMONELLA TYPHIMURIUM, Strain/Indicator: TA100, Metabolic Activation: NONE, Method: STANDARD PLATE
[4] = Test System: AMES SALMONELLA TYPHIMURIUM, Strain/Indicator: TA100, Metabolic Activation: RAT, LIVER, S-9, AROCLOR 1254, Method: STANDARD PLATE
[5] = Test System: AMES SALMONELLA TYPHIMURIUM, Strain/Indicator: TA1535, Metabolic Activation: NONE, Method: STANDARD PLATE
[6] = Test System: AMES SALMONELLA TYPHIMURIUM, Strain/Indicator: TA1535, Metabolic Activation: RAT, LIVER, S-9, AROCLOR 1254, Method: STANDARD PLATE
[7] = Test System: AMES SALMONELLA TYPHIMURIUM, Strain/Indicator: TA1537, Metabolic Activation: NONE, Method: STANDARD PLATE
[8] = Test System: AMES SALMONELLA TYPHIMURIUM, Strain/Indicator: TA1537, Metabolic Activation: RAT, LIVER, S-9, AROCLOR 1254, Method: STANDARD PLATE
[9] = Test System: AMES SALMONELLA TYPHIMURIUM, Strain/Indicator: TA1538, Metabolic Activation: NONE, Method: STANDARD PLATE

| SMILES | mutagenic call [1] | mutagenic call [2] | mutagenic call [3] | mutagenic call [4] | mutagenic call [5] | mutagenic call [6] | mutagenic call [7] | mutagenic call [8] | mutagenic call [9] | further results |
| --- | --- | --- | --- | --- | --- | --- | --- | --- | --- | --- |
| CN1CCC=C2c3nc(N)sc3CCC21 (stereo unspecified) | inactive; negative | active; positive | inactive; negative | active; positive | inactive; negative | inactive; negative | inactive; negative | inactive; negative | inactive; negative |  |
| Cc1c(N)nc([C@H](CC(N)=O)NC[C@H](N)C(N)=O)nc1C(=O)N[C@H](C(=O)N[C@H](C)[C@@H](O)[C@H](C)C(=O)N[C@H](C(=O)NCCc1nc(-c2nc(C(=O)NCCCN(C)CCCN(Cc3ccc(OCc4ccccc4)c(OCc4ccccc4)c3)Cc3ccc(OCc4ccccc4)c(OCc4ccccc4)c3)cs2)cs1)[C@@H](C)O)[C@@H](O[C@@H]1O[C@@H](CO)[C@@H](O)[C@H](O)[C@@H]1O[C@H]1O[C@H](CO)[C@@H](O)[C@H](OC(N)=O)[C@@H]1O)c1cnc[nH]1 |  |  |  |  |  |  |  |  |  | mutagenic call (Test System: AMES SALMONELLA TYPHIMURIUM, Strain/Indicator: TA94, Metabolic Activation: NONE, Method: PREINCUBATION): inactive; negative; mutagenic call (Test System: AMES SALMONELLA TYPHIMURIUM, Strain/Indicator: TA102, Metabolic Activation: NONE, Method: PREINCUBATION): active; positive |
| Cc1cc(C)c(S(=O)(=O)O)cc1N=Nc1cc(S(=O)(=O)O)c2ccccc2c1O | inactive; negative | inactive; negative | inactive; negative | inactive; negative | inactive; negative | inactive; negative | inactive; negative | inactive; negative | inactive; negative | mutagenic call (Test System: AMES SALMONELLA TYPHIMURIUM, Strain/Indicator: TA98, Metabolic Activation: HAMSTER, LIVER, S-9, AROCLOR 1254, Method: STANDARD PLATE): inactive; negative; mutagenic call (Test System: AMES SALMONELLA TYPHIMURIUM, Strain/Indicator: TA98, Metabolic Activation: RAT LIVER S-9, AROCLOR 1254, Method: STANDARD PLATE): inactive; negative; mutagenic call (Test System: AMES SALMONELLA TYPHIMURIUM, Strain/Indicator: TA100, Metabolic Activation: HAMSTER, LIVER, S-9, AROCLOR 1254, Method: STANDARD PLATE): inactive; negative; mutagenic call (Test System: AMES SALMONELLA TYPHIMURIUM, Strain/Indicator: TA100, Metabolic Activation: RAT LIVER S-9, AROCLOR 1254, Method: STANDARD PLATE): inactive; negative; mutagenic call (Test System: AMES SALMONELLA TYPHIMURIUM, Strain/Indicator: TA1535, Metabolic Activation: HAMSTER, LIVER, S-9, AROCLOR 1254, Method: STANDARD PLATE): inactive; negative; mutagenic call (Test System: AMES SALMONELLA TYPHIMURIUM, Strain/Indicator: TA1537, Metabolic Activation: HAMSTER, LIVER, S-9, AROCLOR 1254, Method: STANDARD PLATE): inactive; negative; mutagenic call (Test System: AMES SALMONELLA TYPHIMURIUM, Strain/Indicator: TA1538, Metabolic Activation: HAMSTER, LIVER, S-9, AROCLOR 1254 (2.5-20%), Method: PREINCUBATION): inactive; negative; mutagenic call (Test System: AMES SALMONELLA TYPHIMURIUM, Strain/Indicator: TA1538, Metabolic Activation: HAMSTER, LIVER, S-9, AROCLOR 1254, Method: STANDARD PLATE): inactive; negative; mutagenic call (Test System: AMES SALMONELLA TYPHIMURIUM, Strain/Indicator: TA1538, Metabolic Activation: RAT, LIVER, S-9, AROCLOR 1254, Method: STANDARD PLATE): inactive; negative; mutagenic call (Test System: MOUSE LYMPHOMA, Strain/Indicator: L5178Y (TK+/TK-), Metabolic Activation: NONE, Method: SUSPENSION/PLATE): inactive; negative. reevaluation of results: negative; mutagenic call (Test System: MOUSE LYMPHOMA, Strain/Indicator: L5178Y (TK+/TK-), Metabolic Activation: RAT, LIVER, S-9, AROCLOR 1254, Method: SUSPENSION/PLATE): inactive; negative. reevaluation of results: negative |
